This is an account of results in patent publication US9040707B2, “Bicyclic thiazoles as allosteric modulators of mGluR5 receptors” (Janssen Pharmaceutica NV, priority 2009, dated 2015).

Data set [1] has as its target T1, human mGluR5 receptor (Homo sapiens, UniProt P41594).
T1 construct: expressed in transfected cells; host or cells: HEK-293
Put plainly: Functional Assay 1: intracellular Ca2+ mobilization, positive allosteric modulation of glutamate EC20 response. The class given is cell-based. As to conditions: for Emax: maximum % effect relative to glutamate ECMax. In general terms: Calcium assays in cells follow changes in intracellular calcium, usually with a dye or a luminescent sensor.
Method: HEK-293 cells were stable transfected with human mGluR5a cDNA in expression vector pcDNA4/TO. For Assay 1, these human mGluR5 receptor over-expressing HEK-293 cells were grown at a density of 40,000 cells/well in PDL-coated 384-well plates. The following day, cells were preloaded with the calcium-sensing dye Fluo-4 AM and various concentrations of test compound were added in the absence of exogenous glutamate to test for direct agonist activity. Shortly (2.5 min) thereafter, an EC20 equivalent of glutamate (˜0.2 μM) was added. The fluorescence signal was monitored using a Hamamatsu Functional Drug Screening System (FDSS) fluorescence plate reader following the addition of compound alone (direct agonist response) and then the further addition of an EC20 of glutamate (positive allosteric modulation response). The pEC50 was defined as the negative log of the test compound concentration which produced an increase in the glutamate EC20-mediated response that was 50% of maximum. Individual amplitudes were expressed as % effect by multiplying each amplitude by 100 and then dividing the product by the mean of the amplitudes derived from the glutamate ECMax-treated wells. Emax values reported in this application are defined as the maximum % effect obtained in a concentration-response curve.

The target in data set [2] is T2, human mGluR5a receptor (Homo sapiens, UniProt P41594).
T2 construct: host or cells: HEK293A (monoclones H10H and H12H)
T2 sequence (P41594 21-1180 isoform P41594-2 limits assumed): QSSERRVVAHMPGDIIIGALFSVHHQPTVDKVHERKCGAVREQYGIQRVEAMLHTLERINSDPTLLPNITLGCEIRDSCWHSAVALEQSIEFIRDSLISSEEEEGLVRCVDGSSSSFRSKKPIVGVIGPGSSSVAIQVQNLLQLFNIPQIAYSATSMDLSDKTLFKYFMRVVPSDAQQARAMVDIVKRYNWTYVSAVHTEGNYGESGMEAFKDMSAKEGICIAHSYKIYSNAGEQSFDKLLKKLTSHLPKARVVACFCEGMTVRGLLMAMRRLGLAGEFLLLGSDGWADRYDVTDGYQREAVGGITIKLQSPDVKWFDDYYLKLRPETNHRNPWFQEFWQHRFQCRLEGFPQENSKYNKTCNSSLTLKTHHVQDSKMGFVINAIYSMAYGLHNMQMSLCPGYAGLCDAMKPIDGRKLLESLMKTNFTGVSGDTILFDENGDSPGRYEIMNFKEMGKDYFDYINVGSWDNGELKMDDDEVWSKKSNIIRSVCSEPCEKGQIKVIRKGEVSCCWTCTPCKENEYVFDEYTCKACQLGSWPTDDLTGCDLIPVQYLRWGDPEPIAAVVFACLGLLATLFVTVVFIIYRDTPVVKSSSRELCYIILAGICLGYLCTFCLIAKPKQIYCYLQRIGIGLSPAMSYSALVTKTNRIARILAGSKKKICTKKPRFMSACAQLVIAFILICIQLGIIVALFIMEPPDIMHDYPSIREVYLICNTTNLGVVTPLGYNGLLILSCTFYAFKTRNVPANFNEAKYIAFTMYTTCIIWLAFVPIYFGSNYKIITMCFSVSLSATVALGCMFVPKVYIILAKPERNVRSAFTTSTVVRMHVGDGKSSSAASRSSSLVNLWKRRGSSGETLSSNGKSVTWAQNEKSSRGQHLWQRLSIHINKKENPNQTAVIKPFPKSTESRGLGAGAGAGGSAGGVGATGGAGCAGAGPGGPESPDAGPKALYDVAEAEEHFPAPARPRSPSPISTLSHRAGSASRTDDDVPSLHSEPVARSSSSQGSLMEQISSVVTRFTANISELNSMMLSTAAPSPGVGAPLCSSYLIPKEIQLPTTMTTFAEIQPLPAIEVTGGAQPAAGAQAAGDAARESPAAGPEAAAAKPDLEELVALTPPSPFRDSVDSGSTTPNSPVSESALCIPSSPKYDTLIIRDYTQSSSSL
The data set can be described thus: Functional Assay 2: Ca2+ mobilization, HEK cells with human mGluR5a receptor (H10H cell line). The class given is cell-based. As to conditions: for EC50 / Emax: H10H cell line; for EC50: glutamate EC20; for Emax: HEK293, maximum average response at a single concentration, relative to glutamate ECMax. The protocol:
Human mGluR5a cDNA in pCMV6-XL6 mammalian expression plasmid was purchased from OriGene Technologies, Inc. (catalogue number SC326357) and subcloned into pcDNA3.1(−). […] Monoclones were named for the species (“H” for human) plus the location on the plate (e.g. “10H”).
The following day, the growth medium was removed and the cells were washed with assay buffer containing 1× Hank's balanced salt solution (Invitrogen, Carlsbad, Calif.), 20 mM HEPES, 2.5 mM probenecid, pH 7.4 and left with 20 μL of this reagent. Following this step, the cells were loaded with calcium indicator dye, fluo-4 AM, to a final concentration of 2 μM and incubated for 40-45 min at 37° C. The dye solution was removed and replaced with assay buffer. Cell plates were held for 10-15 min at room temperature and were then loaded into the Functional Drug Screening System 6000 (FDSS 6000, Hamamatsu, Japan).
After establishment of a fluorescence baseline for about 3 seconds, the compounds of the present invention were added to the cells, and the response in cells was measured. 2.3 minutes later an EC20 concentration of the mGluR5 receptor agonist glutamate was added to the cells, and the response of the cells was measured for about 1.7 minutes. All test compounds were dissolved and diluted to a concentration of 10 mM in 100% DMSO and then serially diluted into assay buffer for a 2× stock solution in 0.6% DMSO; stock compounds were then added to the assay for a final DMSO concentration of 0.3% after the first addition to the assay well. Calcium fluorescence measures were recorded as fold over basal fluorescence; raw data was then normalized to the maximal response to glutamate.
The concentration-response curves of compounds of the present invention, obtained in the presence of EC20 of mGluR5 receptor agonist glutamate to determine positive allosteric modulation, were generated using Microsoft Excel with IDBS XLfit add-ins. The raw data file containing all time points was used as the data source in the analysis template. This was saved by the FDSS as a tab-delimitted text file. Data were normalized using a static ratio function (F/F0) for each measurement of the total 350 values per well divided by each well's initial value. […] This is sufficient time to capture the peak amplitude of the cellular calcium response. […] Each of the three values collected at each concentration of test compound were weighted evenly. […] These two methods are in good agreement for curves with a clear plateau at the high concentration range.

The mark [3] stands for this setting: human mGluR5 over-expressing HEK-293 cells, glutamate EC20 (~0.2 μM), updated value.

As a reminder, the EC50 is the midpoint of the concentration-response curve. The term Emax denotes the maximal effect, on the per cent scale that the assay sets. What is called melting point is the temperature, or range, at which the solid turns liquid. By pEC50 is commonly meant −log10 of the EC50, conventionally taken in molar units. A higher pEC50 goes with a small EC50.

Molecules are shown by their SMILES. Counter-ions that a name gives are not always drawn. A value given as a limit tells only on which side of the number the result lay.

T1 sequence (P41594 21-1180 isoform P41594-2 limits assumed): as above

For the molecule `O=C1c2sc(OCc3ccccc3)nc2CCN1c1ccc(F)cc1` [Compound 1, 5-(4-fluorophenyl)-6,7-dihydro-2-(phenylmethoxy)-thiazolo[5,4-c]pyridin-4(5H)-one], the EC50 in data set [1] (setting [3]) was 1290 nM; in data set [1] (original value, which was updated as compound was further tested), 851 nM; in data set [2] it was 309 nM. In addition, the Emax in data set [1] was 64%; in data set [2], 57%.
Molecule `O=C1NCCc2nc(COc3ccccc3)sc21` [Compound 2, 6,7-dihydro-2-(phenoxymethyl)-thiazolo[5,4-c]pyridin-4(5H)-one] yielded a melting point of 170.5 °C. In data set [2], this molecule had an EC50 greater than 10000 nM and an Emax of 84%.
As for `O=C1c2sc(COc3ccccc3)nc2CCN1CC1CCOCC1` [Compound 3, 6,7-dihydro-2-(phenoxymethyl)-5-[(tetrahydro-2H-pyran-4-yl)methyl]-thiazolo[5,4-c]pyridin-4(5H)-one], in data set [2], the midpoint of the response, the EC50, lay at 2290 nM and the Emax turned out to be 78%.
On to `COCCN1CCc2nc(COc3ccccc3)sc2C1=O` [Compound 4, 6,7-dihydro-5-(2-methoxyethyl)-2-(phenoxymethyl)-thiazolo[5,4-c]pyridin-4(5H)-one], for which, in data set [2], the half-maximal effective concentration (EC50) was greater than 10000 nM and the Emax is 69%.
As for `Cc1ccc(N2CCc3nc(COc4ccccc4)sc3C2=O)nc1` [Compound 5, 6,7-dihydro-5-(5-methyl-2-pyridinyl)-2-(phenoxymethyl)-thiazolo[5,4-c]pyridin-4(5H)-one], in data set [2], the midpoint of the response, the EC50, lay at 1200 nM and the Emax was determined as 84.5%.
With `O=C1c2sc(COc3ccc(F)cc3)nc2CCN1c1ccc(F)cc1` [Compound 6, 2-[(4-fluorophenoxy)methyl]-5-(4-fluorophenyl)-6,7-dihydro-thiazolo[5,4-c]pyridin-4(5H)-one], the melting point is greater than 280 °C. In data set [2], this molecule showed an EC50 of 457 nM and an Emax of 75%.
In turn, `O=C1c2sc(COc3ccccc3)nc2CCCN1c1ccc(F)cc1` [Compound 11, 5-(4-fluorophenyl)-5,6,7,8-tetrahydro-2-(phenoxymethyl)-4H-thiazolo[5,4-c]azepin-4-one] yielded a melting point of 120.4 °C. In data set [2], this molecule showed an EC50 of 214 nM and an Emax of 81%.
In the case of `CN1CCc2nc(OCc3ccccc3)sc2C1=O` [Compound 24, 6,7-dihydro-5-methyl-2-(phenylmethoxy)-thiazolo[5,4-c]pyridin-4(5H)-one], in data set [2], the EC50 was 3470 nM and the Emax stood at 45%.
In the same order, the values of `C[C@@H](N1CCc2nc(COc3ccc(F)cc3)sc2C1=O)C(C)(C)C` [Compound 34, 2-[(4-fluorophenoxy)methyl]-6,7-dihydro-5-[(1R)-1,2,2-trimethylpropyl]-thiazolo[5,4-c]pyridin-4(5H)-one] are 1480 nM and 48%.
In the same order, the values of `COc1ccccc1N1CCc2nc(COc3ccccc3F)sc2C1=O` [Compound 36, 2-[(2-fluorophenoxy)methyl]-6,7-dihydro-5-(2-methoxyphenyl)-thiazolo[5,4-c]pyridin-4(5H)-one] are 2000 nM and 71%.
Take `O=C1c2sc(COc3ccccc3)nc2CCN1c1ccccn1` [Compound 45, 6,7-dihydro-2-(phenoxymethyl)-5-(2-pyridinyl)-thiazolo[5,4-c]pyridin-4(5H)-one]: in data set [2], it took 832 nM to reach a half-maximal effect (EC50) and the Emax is 85%.
In data set [2], `O=C1c2sc(COc3ccccc3)nc2CCN1c1ccc(F)cn1` [Compound 47, 5-(5-fluoro-2-pyridinyl)-6,7-dihydro-2-(phenoxymethyl)-thiazolo[5,4-c]pyridin-4(5H)-one] had an EC50 of 251 nM and an Emax of 82%.
On the same counts, the results for `O=C1c2sc(COc3ccccc3)nc2CCN1c1cccnc1` [Compound 48, 6,7-dihydro-2-(phenoxymethyl)-5-(3-pyridinyl)-thiazolo[5,4-c]pyridin-4(5H)-one] are 4680 nM and 78%.
`O=C1c2sc(COc3ccccc3)nc2CCN1c1ccncc1` [Compound 49, 6,7-dihydro-2-(phenoxymethyl)-5-(4-pyridinyl)-thiazolo[5,4-c]pyridin-4(5H)-one]: the pEC50 in data set [2] turned out to be 5.57.
Take `O=C1c2sc(COc3ccccc3)nc2CCN1c1ncccc1F` [Compound 50, 5-(3-fluoro-2-pyridinyl)-6,7-dihydro-2-(phenoxymethyl)-thiazolo[5,4-c]pyridin-4(5H)-one]: in data set [2], a half-maximal effect (EC50) was put at 1380 nM and the Emax amounted to 69%.
Regarding `Cc1ccnc(N2CCc3nc(COc4ccccc4)sc3C2=O)c1` [Compound 51, 6,7-dihydro-5-(4-methyl-2-pyridinyl)-2-(phenoxymethyl)-thiazolo[5,4-c]pyridin-4(5H)-one], in data set [2], it took 3630 nM to reach a half-maximal effect (EC50) and the Emax was 75%.
On the same counts, the results for `Cc1cccnc1N1CCc2nc(COc3ccccc3)sc2C1=O` [Compound 52, 6,7-dihydro-5-(3-methyl-2-pyridinyl)-2-(phenoxymethyl)-thiazolo[5,4-c]pyridin-4(5H)-one] are 1350 nM and 82%.
In data set [2], `O=C1c2sc(COc3ccccc3)nc2CCN1c1ccncc1F` [Compound 58, 5-(3-fluoro-4-pyridinyl)-6,7-dihydro-2-(phenoxymethyl)-thiazolo[5,4-c]pyridin-4(5H)-one] showed an EC50 of 562 nM and an Emax of 71%.
On the same counts, the results for `CC(C)N1CCc2nc(COc3ccccc3)sc2C1=O` [Compound 63, 6,7-dihydro-5-(1-methylethyl)-2-(phenoxymethyl)-thiazolo[5,4-c]pyridin-4(5H)-one] are 2630 nM and 37.5%.
In the case of `CC(C)N1CCc2nc(COc3cccc(F)c3)sc2C1=O` [Compound 64, 2-[(3-fluorophenoxy)methyl]-6,7-dihydro-5-(1-methylethyl)-thiazolo[5,4-c]pyridin-4(5H)-one], in data set [2], the EC50 was greater than 30200 nM and the Emax was found to be 18%.
`O=C1NCCc2nc(OCc3ccccc3)sc21` [Compound 65, 6,7-dihydro-2-(phenylmethoxy)-thiazolo[5,4-c]pyridin-4(5H)-one] gave an EC50 in data set [1] (setting [3]) greater than 30200 nM. Also, the Emax in data set [1] worked out at 25%.
Molecule `N#Cc1cc(COc2nc3c(s2)C(=O)NCC3)ccc1F` [Compound 66, 2-fluoro-5-[[(4,5,6,7-tetrahydro-4-oxothiazolo[5,4-c]pyridin-2-yl)oxy]methyl]-benzonitrile] showed a concentration giving a half-maximal response (EC50) in data set [1] (setting [3]) greater than 30200 nM. Moreover, the maximal effect (Emax) in data set [1] came to 24%.
`Cc1ccccc1COc1nc2c(s1)C(=O)NCC2` [Compound 67, 6,7-dihydro-2-[(2-methylphenyl)methoxy]-thiazolo[5,4-c]pyridin-4(5H)-one]: in data set [2], the EC50 is greater than 30200 nM and the Emax came to 18%.
With `Cc1cccc(COc2nc3c(s2)C(=O)NCC3)c1` [Compound 68, 6,7-dihydro-2-[(3-methylphenyl)methoxy]-thiazolo[5,4-c]pyridin-4(5H)-one], in data set [2], the EC50 is greater than 30200 nM and the Emax is 20%.
In data set [1] (setting [3]), `O=C1NCCc2nc(OCc3ccccc3F)sc21` [Compound 69, 2-[(2-fluorophenyl)methoxy]-6,7-dihydro-thiazolo[5,4-c]pyridin-4(5H)-one trifluoroacetate] gave a concentration for a half-maximal effect (EC50) greater than 30200 nM. Also, in data set [1], the Emax is 15%.
On to `O=C1NCCc2nc(OCc3cccc(F)c3)sc21` [Compound 70, 2-[(3-fluorophenyl)methoxy]-6,7-dihydro-thiazolo[5,4-c]pyridin-4(5H)-one trifluoroacetate], for which the EC50 in data set [1] (setting [3]) is greater than 30200 nM. Besides, in data set [1], the maximal response (Emax) amounted to 15%.
In the case of `O=C1NCCc2nc(OCc3ccc(F)cc3)sc21` [Compound 71, 2-[(4-fluorophenyl)methoxy]-6,7-dihydro-thiazolo[5,4-c]pyridin-4(5H)-one trifluoroacetate], the EC50 in data set [1] (setting [3]) is greater than 30200 nM. Besides, the Emax in data set [1] came out at 8%.
`Cc1ccc(COc2nc3c(s2)C(=O)NCC3)cc1` [Compound 72, 6,7-dihydro-2-[(4-methylphenyl)methoxy]-thiazolo[5,4-c]pyridin-4(5H)-one] gave a concentration giving a half-maximal response (EC50) in data set [1] (setting [3]) greater than 30200 nM. The Emax in data set [1] came to 10%.
Consider `COc1cccc(COc2nc3c(s2)C(=O)N(c2ccc(F)cc2F)CC3)c1` [Compound 80, 5-(2,4-difluorophenyl)-6,7-dihydro-2-[(3-methoxyphenyl)methoxy]-thiazolo[5,4-c]pyridin-4(5H)-one], for which, in data set [1] (setting [3]), the EC50 is greater than 30200 nM. Also, in data set [1], the Emax came to 26%.
